Measurements taken from patent publication US11660349B2, “Non-linear multiblock copolymer-drug conjugates for the delivery of active agents” (priority 2012, dated 2023).
Entries after “also recorded” stand apart in the source; their conditions may differ.

Assays:
[1] = test system: mice with laser-induced choroidal NV; assay: Laser-induced choroidal NV (CNV) mouse model; assay type: in vivo, mouse (C57BL/6); conditions: 14 days, vs vehicle-injected fellow eyes
Experimental: Pathogen-free C57BL/6 mice (Charles River, Wilmington, Mass.) were treated in accordance with the Association for Research in Vision and Ophthalmology Statement for the Use of Animals in Ophthalmic and Vision Research and the guidelines of the Johns Hopkins University Animal Care and Use Committee.
Choroidal NV was induced by laser photocoagulation-induced rupture of Bruch's membrane as previously described (Tobe, T. et al., Am. J. Pathol. 135(5): 1641-1646(1998)). […] Laser photocoagulation (75 μm spot size, 0.1 sec duration, 120 mW) was performed in the 9, 12, and 3 o'clock positions of the posterior pole of each eye with the slit lamp delivery system of an OcuLight GL diode laser (Iridex, Mountain View, Calif.) and a handheld cover slip as a contact lens to view the retina. Production of a bubble at the time of laser, which indicates rupture of Bruch's membrane, is an important factor in obtaining CNV; therefore, only burns in which a bubble was produced were included in the study.
Immediately after laser-induced rupture of Bruch's membrane, mice were randomized to various treatment groups for intraocular injections. Intravitreal injections were done under a dissecting microscope with a Harvard Pump Microinjection System and pulled glass micropipettes.
At 1, 4, 7, and 14 days after injection, fundus photographs were taken with a Micron III® camera (Phoenix Research Laboratories Inc., Pleasanton, Calif.). After 14 days, the mice were perfused with 1 ml of PBS containing 25 mg/ml of fluorescein-labeled dextran (2×10^6 Daltons average molecular weight; Sigma-Aldrich, St. Louis, Mo.) and choroidal flat mounts were examined by fluorescence microscopy. Images were captured with a Nikon Digital Still Camera DXM1200 (Nikon Instruments Inc., New York, N.Y.). Image analysis software (Image-Pro® Plus; Media Cybernetics, Silver Spring, Md.) was used to measure the total area of CNV at each rupture site with the investigator masked with respect to treatment group.

[2] = test system: C57BL/6 mice with oxygen-induced ischemic retinopathy; assay: Oxygen-induced ischemic retinopathy, area of retinal NV; assay type: in vivo, mouse (C57BL/6); conditions: five days after administration (P17), vs vehicle
Experimental: At P17, the area of retinal NV on the surface of the retina was measured. […] Retinas were dissected, washed, and incubated with goat-anti rat polyclonal antibody conjugated with Alexa 488 (Invitrogen, Carlsbad, Calif.) at 1:500 dilution at room temperature for 45 minutes and flat mounted. An observer masked with respect to treatment group measured the area of NV per retina by image analysis.

Adult C57BL/6 mice [3] = assay: Electroretinograms (ERGs), retinal function after intraocular injection
Experimental: For scotopic recordings, mice were dark adapted overnight, and for photopic recordings, mice were adapted for 10 min to background white light at an intensity of 30 cd/m^2. The mice were anesthetized with an intraperitoneal injection of ketamine hydrochloride (100 mg/kg body weight) and xylazine (5 mg/kg body weight). Pupils were dilated with Midrin P containing of 0.5% tropicamide and 0.5% phenylephrine, hydrochloride (Santen Pharmaceutical Co., Osaka, Japan). The mice were placed on a pad heated to 39° C. and platinum loop electrodes were placed on each cornea after application of Gonioscopic prism solution (Alcon Labs, Fort Worth, Tex.). A reference electrode was placed subcutaneously in the anterior scalp between the eyes and a ground electrode was inserted into the tail. The head of the mouse was held in a standardized position in a ganzfeld bowl illuminator that ensured equal illumination of the eyes. Recordings for both eyes were made simultaneously with electrical impedance balanced. Scotopic ERGs were recorded at 11 intensity levels of white light ranging from −3.00 to 1.40 log cd-s/m2. Six measurements were averaged for each flash intensity. Photopic ERGs were recorded at three intensity levels of white light ranging from 0.60 to 1.40 log cd-s/m2 with a 30 cd/m2 background. Five measurements were averaged for each flash intensity.

Adult C57BL/6 mice [4] = assay: Outer nuclear layer (ONL) thickness; assay type: in vivo, mouse (C57BL/6); conditions: 0.25 μg intraocular; one week after injection
Experimental: ONL thickness was measured. […] Mice were euthanized, a mark was placed at 12:00 at the corneal limbus, and eyes were removed and embedded in optimal cutting temperature compound. Ten micrometer frozen sections were cut parallel to the 12:00 or 9:00 meridian through the optic nerve and fixed in 4% paraformaldehyde. The sections were stained with hematoxylin and eosin, examined with an Axioskop microscope (Zeiss, Thornwood, N.Y.), and images were digitized using a three charge-coupled device (CCD) color video camera (IK-TU40A; Toshiba, Tokyo, Japan) and a frame grabber. Image-Pro Plus software (Media Cybernetics, Silver Spring, Md.) was used to outline the ONL.

[5] = test system: HIF-1 transcriptional activity and ocular NV; conditions: intraocular injections of 0.01-0.25 μg; cited from earlier work
[6] = 0.1 μg intraocular after rupture of Bruch's membrane
[7] = 1.0 μg intraocular after rupture of Bruch's membrane
[8] = 10 μg intraocular after rupture of Bruch's membrane
[9] = 1 μg intraocular, fourteen days after injection

Structure (SMILES)	area of CNV [1, 6]	area of CNV [1, 7]	area of CNV [1, 8]	area of RNV ([2]; 0.01 μg intraocular at P12)	area of RNV ([2]; 0.1 μg intraocular at P12)	area of RNV ([2]; 1.0 μg intraocular at P12)	mean scotopic and photopic b-wave amplitudes (Adult C57BL/6 mice [3]; [9])	outer nuclear layer thickness (Adult C57BL/6 mice [4])	HIF-1 transcriptional activity and ocular NV [5]	mean scotopic and photopic b-wave amplitudes (Adult C57BL/6 mice [3]; 0.05 μg intraocular)	ERG amplitudes (scotopic a-wave, scotopic b-wave, photopic b-wave) (Adult C57BL/6 mice [3]; 0.25 μg intraocular, one week after injection)
COc1cccc2c1C(=O)c1c(O)c3c(c(O)c1C2=O)C[C@@](O)(C(C)=O)C[C@@H]3O[C@H]1C[C@H](N)[C@H](O)[C@H](C)O1 [DNR, daunorubicin]	had no significant effect; also recorded: did not show a statistically significant reduction in the area of CNV	had no significant effect; also recorded: did not show a statistically significant reduction in the area of CNV	suppressed choroidal NV; also recorded: statistically significant reduction in the area of CNV	had no significant effect; also recorded: did not show a statistically significant reduction in the area of RNV	caused a small reduction; also recorded: statistically significant reduction in the area of RNV	markedly reduced the area of retinal NV; also recorded: statistically significant reduction in the area of RNV	significant reduction in mean scotopic and photopic b-wave amplitudes				
COc1cccc2c1C(=O)c1c(O)c3c(c(O)c1C2=O)C[C@@](O)(C(=O)CO)C[C@@H]3O[C@H]1C[C@H](N)[C@H](O)[C@H](C)O1 [DXR, doxorubicin]	did not have a significant effect; also recorded: did not show a statistically significant reduction in the area of CNV	did not have a significant effect; also recorded: did not show a statistically significant reduction in the area of CNV	suppressed choroidal NV; also recorded: statistically significant reduction in the area of CNV	but not 0.1 or 0.01 μg, significantly reduced the area of retinal NV; also recorded: did not show a statistically significant reduction in the area of RNV	but not 0.1 or 0.01 μg, significantly reduced the area of retinal NV; also recorded: did not show a statistically significant reduction in the area of RNV	significantly reduced the area of retinal NV; also recorded: statistically significant reduction in the area of RNV	significant reduction in mean scotopic and photopic b-wave amplitudes				
C[C@H]1O[C@@H](O[C@H]2[C@@H](O)C[C@H](O[C@H]3[C@@H](O)C[C@H](O[C@H]4CC[C@@]5(C)[C@H](CC[C@@H]6[C@@H]5C[C@@H](O)[C@]5(C)[C@@H](C7=CC(=O)OC7)CC[C@]65O)C4)O[C@@H]3C)O[C@@H]2C)C[C@H](O)[C@@H]1O [digoxin]								reduction in outer nuclear layer thickness at 3 of 6 measurement locations	suppress HIF-1 transcriptional activity and ocular NV	significant reduction in mean scotopic and photopic b-wave amplitudes	significant reduction in mean scotopic a-wave amplitude, mean scotopic b-wave amplitude, and mean photopic b-wave amplitude
